In PMC8292346, “Dysfunction of the key ferroptosis-surveilling systems hypersensitizes mice to tubular necrosis during acute kidney injury” (Nature Communications, 2021):
Several values for one entry are separate records, joined by “and”; a condition that tells them apart may be missing. Identical values can stand only once. Entries after “also recorded” stand apart in the source; their conditions may differ.

What was measured:
[1] = Inhibited co-autoxidation of egg phosphatidylcholine liposomes and STY-BODIPY (radical-trapping antioxidant activity)
Method: Inhibitors were then added (5 μl aliquots) at desired concentrations to the appropriate wells followed by vigorous mixing. […] Experiments were performed in triplicate using HPLC grade solvents and kinetic data is given as an average of three independent measurements. […]

HT29 cells = assay: TSZ-induced necroptosis, 7-AAD/annexin V flow cytometry; assay type: cell-based, human; details: Nec-1f 10 µM; for Protection against TSZ-induced necroptosis (7-AAD/annexin V, words): HT29, TSZ
Method: (§1) To induce necroptosis in a human cell line, HT29 cells were stimulated at the indicated time points with 20 ng/ml human TNFα (Biolegend), 1 μM SMAC-mimetics (Birinapant, Chemietek), and 20 μM zVAD-fmk (Selleckchem, herein referred to as zVAD). For the induction of necroptosis in NIH3T3 cells, cells were incubated with 20 ng/ml TNF-α and 20 μM zVAD for indicated time points. […] Cells were seeded in six-well plates or petri dishes. […] After indicated time points, cells were collected and prepared for flow cytometry, immunoblotting, and/or LDH release assays.
(§2) Cells were harvested and the pellets were washed twice in PBS and stained with 5 μl of 7-AAD (BD Biosciences) and 5 μl of annexin-V-FITC (BD Biosciences) added to 100 μl annexin-V binding buffer (BD Biosciences). After 15 min, cells were recorded on the LSRII with the FACS Diva 6.1.1 software (BD Biosciences) and subsequently analyzed with the FlowJo v10 software (Tree Star).

RIPK1 = assay: Western blot of pRIPK1 (S166) in TSZ-treated HT29 cells; assay type: cell-based, human; details: Nec-1s 10 µM, Fer-1 1 µM, Nec-1f 10 µM
Method: as §1
Cells were lysed in ice-cold 10 mM Tris-HCl, pH 7.5, 50 mM NaCl, 1% Triton X-100, 30 mM sodium pyrophosphate, 50 mM NaF, 100 μM Na3VO4, 2 μM ZnCl2, and 1 mM phenylmethylsulfonyl fluoride (PMSF, modified Frackelton buffer) for 30 min on ice. Insoluble material was removed by centrifugation (14 000×g, 30 min, 4 °C). Protein concentration was determined using a commercial Bradford assay kit according to the manufacturer’s instructions (Thermo Fisher). Equal amounts of protein (typically 30 μg per lane) were resolved on a 4%−15% gradient SDS/PAGE gel and transferred to a PVDF membrane (BIO-RAD). Primary antibody incubation was performed for anti-pS166-RIPK1 (Cell Signaling, Cat# 65746, 1:1000 dilution), anti-pS358-MLKL, (Abcam, ab187091, 1:1000 dilution), anti-MLKL (Genetex, GTX107538, 1:1000 dilution) and anti-β-Actin (Cell Signaling, Cat# 3700S, 1:1000 dilution). Secondary antibodies (anti-mouse, HRP-linked antibody, Cell Signaling, Cat# 7076S; anti-rabbit, HRP-linked antibody, Cell Signaling, Cat# 7074S) were applied at concentrations of 1:5.000 (also see Supplementary Table 1 for details). Proteins were then visualized by enhanced chemiluminescence (ECL; Amersham Biosciences).

[2] = tested on: freshly isolated primary murine renal tubules; assay: RSL3-induced LDH release of freshly isolated kidney tubules; assay type: cell-based; details: RSL3 2 h; for LDH release: freshly isolated kidney tubules, 5 mM glycine, alone (DMSO) or with Fer-1 or Nec-1f; for Effect on RSL3-induced LDH release: freshly isolated tubules, glycine medium
Method: The LDH release of cells or of freshly isolated kidney tubules was measured according to manufacturers’ instructions at indicated time points. In brief, an aliquot of the supernatant was taken and Lysis Solution was added for 45 min to induce maximal LDH release before another aliquot of the supernatant was taken. Subsequently, the supernatants were incubated with CytoTox 96® Reagent for 15 min protected from light at room temperature before adding Stop Solution. Absorbance was measured at 490 nm.
Primary murine renal tubules were isolated following a modified previously established protocol. […] Kidney slices of each kidney were transferred in 2 ml reaction tube containing 2 mg/ml collagenase type II in incubation solution (48 μg/ml trypsin inhibitor, 25 μg/ml DNAse I, 140 mM NaCl, 0.4 mM KH2PO4, 1.6 mM K2HPO4 · 3 H2O, 1 mM MgSO4 · 7 H2O, 10 mM CH3COONa · 3 H2O, 1 mM α-ketoglytarate and 1.3 mM Ca-gluconate) and digested for 5 min at 37 °C, 850 rpm. Due to the presence of damaged tubules, the first resulting supernatant was discarded and 1 ml of 2 mg/ml collagenase type II in incubation solution was added to the kidney slices and digested for 5 min at 37 °C, 850 rpm. The supernatant was collected and transferred in a 2 ml reaction tube containing 1 ml ice-cold sorting solution (0.5 mg/ml bovine albumin in incubation solution). The reaction tubes were left on ice for the tubules to precipitate. The supernatant was removed and the tubules were washed twice with ice-cold incubation solution. Once the tubules precipitated the supernatant was removed and the ice-cold sorting solution was added (the volume was adjusted depending on the number of samples needed for the experiment). Tubules were distributed in a twenty-four-well plate containing Dulbecco’s Modified Eagle Medium F-12 Nutrient Mixture without phenol red (DMEM/F12, Thermo Fisher), supplemented with 0.01 mg/ml recombinant human insulin, 5.5 μg/ml human transferrin, 0.005 μg/ml sodium selenite (Na2SeO3) (ITS without linoleic acid, Sigma Aldrich), 50 nM hydrocortisone, 100 U/ml penicillin, and 100 μg/ml streptomycin (Pen/Strep, Thermo Fisher).
All of the experiments performed contain a negative control to assess LDH release at 0 h of incubation as a quality control. No more than 10% LDH release in these negative controls was tolerated. […] Isolated murine renal tubules were placed in twenty four-well plates containing the respective agents diluted in Dulbecco’s Modified Eagle Medium F-12 Nutrient Mixture without phenol red (DMEM/F12, Thermo Fisher), supplemented with 0.01 mg/ml recombinant human insulin, 5.5 μg/ml human transferrin, 0.005 μg/ml Na2SeO3 (ITS without linoleic acid, Sigma Aldrich), 50 nM hydrocortisone, 100 U/ml penicillin, and 100 μg/ml streptomycin (Pen/Strep, Thermo Fisher). […]

[3] = tested on: Mouse cortical tubule cells (MCT); assay: FINs/ferroptocide, 7-AAD/annexin V flow cytometry; assay type: cell-based; details: for double-negative events (7-AAD/annexin V): MCT, alone (DMSO) or with Fer-1 1 µM, Nec-1s 30 µM, Nec-1f 30 µM
Method: as §1, §2

C57Bl/6 N mice = assay: Bilateral kidney ischemia-reperfusion injury, severe model (38 min ischemia), survival; details: single dose 2 mg/kg body weight before reperfusion

SMILES: CCOC(=O)c1ccc(NC2CCCCC2)c(N)c1 [Fer-1, ferrostatin-1]
- ΔSTY-BODIPY ([1]; 2 µM Fer-1, time 53820 s): -0.3745 µM
- ΔSTY-BODIPY ([1]; 2 µM Fer-1, time 53880 s): -0.3737 µM
- ΔSTY-BODIPY ([1]; 2 µM Fer-1, time 53940 s): -0.3729 µM
- ΔSTY-BODIPY ([1]; 2 µM Fer-1, time 54000 s): -0.3705 µM
- Protection against TSZ-induced necroptosis (7-AAD/annexin V, words) (HT29 cells): did not provide protection against necroptosis
- Phosphorylation of RIPK1 at S166, western blot (RIPK1): RIPK1 S166 phorphorylation was increased
- LDH release [2]: 22.94% and 23.84% and 16.99%
- Effect on RSL3-induced LDH release [2]: significantly attenuated
- Effect on RSL3- and FINO2-induced ferroptosis ([3]; MCT cells): reversed
- double-negative events (7-AAD/annexin V) ([3]; 1.13 µM RSL3 6 h): 96.6% and 93.5% and 69%
- double-negative events (7-AAD/annexin V) ([3]; 5 µM erastin 24 h): 79.5% and 84.2% and 82.8% and 86.9%
- double-negative events (7-AAD/annexin V) ([3]; 10 µM FIN56 24 h): 89.5% and 93.6% and 90.5%
- double-negative events (7-AAD/annexin V) ([3]; 10 µM FINO2 24 h): 96% and 77.1% and 92.8% and 95.9% and 89.7%
- double-negative events (7-AAD/annexin V) ([3]; 10 µM ferroptocide 24 h): 86.2% and 85.5% and 72.2% and 89.6% and 67.8% and 73.5%
- Survival after severe renal IRI vs vehicle (Kaplan-Meier, words) (C57Bl/6 N mice): not statistically significant

SMILES: CN1C(=O)C(Cc2c[nH]c3c(Cl)cccc23)NC1=S (centres unmarked) [Nec-1f]
- RTA activity in co-autoxidation of egg phosphatidylcholine lipids in STY-BODIPY-embedded liposomes [1]: devoid of RTA activity
- ΔSTY-BODIPY ([1]; 2 µM Nec-1f, time 53820 s): -0.4045 µM
- ΔSTY-BODIPY ([1]; 2 µM Nec-1f, time 53880 s): -0.4072 µM
- ΔSTY-BODIPY ([1]; 2 µM Nec-1f, time 53940 s): -0.4054 µM
- ΔSTY-BODIPY ([1]; 2 µM Nec-1f, time 54000 s): -0.4034 µM
- ΔSTY-BODIPY ([1]; 10 µM Nec-1f, time 53820 s): -0.5158 µM
- ΔSTY-BODIPY ([1]; 10 µM Nec-1f, time 53880 s): -0.5141 µM
- ΔSTY-BODIPY ([1]; 10 µM Nec-1f, time 53940 s): -0.5142 µM
- ΔSTY-BODIPY ([1]; 10 µM Nec-1f, time 54000 s): -0.5122 µM
- 7-AAD/annexin V flow cytometry, source data of bar graph Fig2e (HT29 cells; HT29, TSZ (TNFα 20 ng/ml, birinapant 1 µM, zVAD-fmk 20 µM) 16 h): 80.1% and 85.8% and 92.9% and 83.9% and 82.2% and 61.2% and 88.8% and 88.1%
- Protection against TSZ-induced necroptosis (7-AAD/annexin V, words) (HT29 cells): maintained double negativity
- Phosphorylation of RIPK1 at S166, western blot (RIPK1): prevented phosphorylation at S166 in RIPK1
- LDH release [2]: 18.43% and 23.14% and 28.56%
- Effect on RSL3-induced LDH release [2]: reduction of LDH release; also recorded: significantly attenuated
- Effect on FINO2-induced death ([3]; MCT cells): failed to prevent
- Effect on RSL3-induced annexin V / 7-AAD positivity ([3]; MCT cells): inhibited
- double-negative events (7-AAD/annexin V) ([3]; 1.13 µM RSL3 6 h): 93.7% and 87.8% and 51.4%
- double-negative events (7-AAD/annexin V) ([3]; 5 µM erastin 24 h): 79.8% and 85.4% and 81.9% and 88.8%
- double-negative events (7-AAD/annexin V) ([3]; 10 µM FIN56 24 h): 93.7% and 87.9% and 91.7%
- Survival after severe renal IRI vs vehicle (Kaplan-Meier, words) (C57Bl/6 N mice): significantly higher
